Measurements: patent US7381521B2, “Anti-pathogenic composition useful in blood preservation” (Altachem Pharma Ltd., priority 2001, dated 2008)

How the values were obtained:
HIV-1 virus = experiment: Infectivity of HIV-1 treated 10 minutes with product for normal human T lymphocytes (reverse transcriptase activity, ATI, in culture supernatants); type: cell-based
Excerpt: Infectivity is studied on T lymphocytes obtained from peripheral blood of a healthy human donor and separated on a Ficoll gradient.
The lymphocytes are stimulated for 3 days by phytohaemaglutinin P (PHA P) diluted to 1/500 and cultivated in a complete medium. The blastic cells T are infected by the virus, treated or not, in order to show up residual infectious strength.
The viruses obtained from a supernatant culture of an HIV-1 infected CEM line. This T lymphoblastoid line infected by HIV-1 is used for viral production.
The titer of the supernatant substances used is evaluated after quantitative analysis of the reverse transcriptase activity (ATI) of the virus.
In the following tests, a supernatant substance was used, the ATI of which was 1.8×10^6 cpm/ml.
Preparation of the viral solution: several tubes containing 1 ml viral supernatant, ATI 1.8×10^6 cmp/ml are, concentrated by ultracentrifugation. The resulting virus residues are taken up either by each of the different dilutions of QACs produced in sterile bidistilled water or by water (untreated control virus).
Treatment of viral preparations: the concentrated viral preparations are all treated according to the following procedure:
Treated virus samples: the virus residues concentrated by ultracentrifugation are resuspended in 100, μl of each of the concentrations in terms of products (QACs) studied and incubated for 10 minutes.
Control viral sample: untreated control virus: the product is replaced by 100 μl of sterile bidistilled water.
Following this 10 minute incubation time, the virus present in each sample is rinsed and then reconcentrated by addition of 12 ml of RPMI 1640 medium and ultracentrifugation. The virus residues are then taken up in 1 ml of complete medium and used for infecting normal human T lymphocytes.
Measurement of the infectivity of the samples: 4×10^6 normal human T lymphocytes are infected with each of the treated viral preparations or controls mentioned hereinabove. Infection of the T cells is carried out according to a previously described method (F. Barre Sinoussi et al. Science, 1983, 220:868-871): to sum up, 4×10^6 cells in suspension in 1 ml of complete medium are incubated with 1 ml of each of the treated vial preparations or controls for 1 hour at 37° C.
After two washings using several millilitres of culture medium, the cellular suspensions are adjusted to the concentration of 1×10^6 cells per ml. The day of the infection is regarded as day 0.
Viral production during the course of time is determined by measuring the reverse transcriptase activity present in the culture supernatants using the procedure described below.
This quantitative analysis makes it possible to evaluate the presence of noninactivated residual virus in the staring sample. It is carried out on a basis of 1 ml of culture supernatant taken every 2 or 3 days and ultracentrifuged.
The enzymatic activities are measured in 50 μl of a reaction mixture containing 50 mM Tris pH 7.8, 20 mM MgCl2, 20 mM KCl, 2 mM dithiotreitol, 0.25 OD/ml, oligo dT, 0.25 OD/ml poly rA, 0.1% Triton×100 and 2.5 μCi 3H DTTP.
After incubation for 1 hour at 37° C., the reaction is stopped by the addition of 10 μl of 0.2 M EDTA and the samples are deposited on DE81 membranes.
After several washings using 5% Na2HPO4, then by distilled water, the membranes are dried and the radioactivity measured by means of a p scintillation counter (PACKARD).

S. aureus ATCC 6538 = experiment: Test 2 (DGHM), growth inhibition by dilutions, 72 hours at 37° C.; type: cell-based, Staphylococcus aureus
Description: Another test was carried out a basis of the following solutions • 100 ml of a 0.1% solution of chlorohexidine digluconate (pH 6); and • 100 ml of a 0.1% solution of Bardac22®.
The activity of these solutions, alone or in combination, was more particularly tested in respect of Staphylococcus aureus ATCC 6538, Escherichia coli ATCC 11229 and Candida albicans ATCC 10231.
The tests were conducted in accordance with the procedure described in Chapter I/2.1 and 2.2 of Tichtlinien für die Prüfung und Bewertung chemischer Desinfektionsverfahren der DGHM/Guidelines for Testing and Evaluating Chemical Disinfection Processes of DGHM as at 1.1, 1981.
Tables IX, X and XI respectively illustrate the bactericidal and fungicidal activity of a 0.1% aqueous solution of chlorohexidine digluconate, a 0.1% aqueous solution of Bardac22® and a mixture of equal parts of both compounds. The procedures of which these Tables illustrate the results comprise incubation of 72 hours at 37° C. and the use of the following inactivating substances as controls: • A: 3% Tween®80+0.3% lecithin+0.1% cysteine • B: 3% Tween®80+3% saponin+0.1% cysteine+0.1% histidine; • C: 3% Tween®80+0.3% lecithin+0.1% histidine+0.5% sodium thiosulphate.
In these Tables, the sign “+” indicates an increase and the sign “−” denotes the absence of growth.

[1] = 0.00625% vol/vol, inactivator A
[2] = 0.00625% vol/vol, inactivator B
[3] = 0.00625% vol/vol, inactivator C
[4] = 0.00625% vol/vol, no inactivator
[5] = 0.0125% vol/vol, no inactivator

CCCCCCCCCC[N+](C)(C)CCCCCCCCCC.[Cl-] [Bardac ®, didecyl dimethyl ammonium chloride]
ATI in supernatant (HIV-1 virus; Bardac 0.0004%, J3): 702 cpm/ml
ATI in supernatant (HIV-1 virus; Bardac 0.0004%, J6): 18136 cpm/ml
ATI in supernatant (HIV-1 virus; Bardac 0.0004%, J10): 117326 cpm/ml
ATI in supernatant (HIV-1 virus; Bardac 0.0004%, J13): 74214 cpm/ml
ATI in supernatant (HIV-1 virus; Bardac 0.0004%, J17): 50674 cpm/ml
ATI in supernatant (HIV-1 virus; Bardac 0.0004%, J20): 22478 cpm/ml
ATI in supernatant (HIV-1 virus; Bardac 0.0004%, J23): 13806 cpm/ml
ATI in supernatant (HIV-1 virus; Bardac 0.0004%, J27): 7800 cpm/ml
ATI in supernatant (HIV-1 virus; Bardac 0.0004%, J30): 4426 cpm/ml
ATI in supernatant (HIV-1 virus; Bardac 0.002%, J3): 464 cpm/ml
ATI in supernatant (HIV-1 virus; Bardac 0.002%, J6): 2472 cpm/ml
ATI in supernatant (HIV-1 virus; Bardac 0.002%, J10): 16066 cpm/ml
ATI in supernatant (HIV-1 virus; Bardac 0.002%, J13): 24902 cpm/ml
ATI in supernatant (HIV-1 virus; Bardac 0.002%, J17): 77754 cpm/ml
ATI in supernatant (HIV-1 virus; Bardac 0.002%, J20): 75554 cpm/ml
ATI in supernatant (HIV-1 virus; Bardac 0.002%, J23): 101394 cpm/ml
ATI in supernatant (HIV-1 virus; Bardac 0.002%, J27): 80560 cpm/ml
ATI in supernatant (HIV-1 virus; Bardac 0.002%, J30): 64692 cpm/ml
ATI in supernatant (HIV-1 virus; Bardac 0.004%, J3): 346 cpm/ml
ATI in supernatant (HIV-1 virus; Bardac 0.004%, J6): 298 cpm/ml
ATI in supernatant (HIV-1 virus; Bardac 0.004%, J10): 160 cpm/ml
ATI in supernatant (HIV-1 virus; Bardac 0.004%, J13): 170 cpm/ml
ATI in supernatant (HIV-1 virus; Bardac 0.004%, J17): 350 cpm/ml
ATI in supernatant (HIV-1 virus; Bardac 0.004%, J20): 218 cpm/ml
ATI in supernatant (HIV-1 virus; Bardac 0.004%, J23): 444 cpm/ml
ATI in supernatant (HIV-1 virus; Bardac 0.004%, J27): 244 cpm/ml
ATI in supernatant (HIV-1 virus; Bardac 0.004%, J30): 264 cpm/ml
ATI in supernatant (HIV-1 virus; Bardac 0.006%, J3): 320 cpm/ml
ATI in supernatant (HIV-1 virus; Bardac 0.006%, J6): 326 cpm/ml
ATI in supernatant (HIV-1 virus; Bardac 0.006%, J10): 204 cpm/ml
ATI in supernatant (HIV-1 virus; Bardac 0.006%, J13): 248 cpm/ml
ATI in supernatant (HIV-1 virus; Bardac 0.006%, J17): 364 cpm/ml
ATI in supernatant (HIV-1 virus; Bardac 0.006%, J20): 180 cpm/ml
ATI in supernatant (HIV-1 virus; Bardac 0.006%, J23): 328 cpm/ml
ATI in supernatant (HIV-1 virus; Bardac 0.006%, J27): 588 cpm/ml
ATI in supernatant (HIV-1 virus; Bardac 0.006%, J30): 196 cpm/ml
ATI in supernatant (HIV-1 virus; Bardac 0.01%, J3): 334 cpm/ml
ATI in supernatant (HIV-1 virus; Bardac 0.01%, J6): 222 cpm/ml
ATI in supernatant (HIV-1 virus; Bardac 0.01%, J10): 1768 cpm/ml
ATI in supernatant (HIV-1 virus; Bardac 0.01%, J13): 1592 cpm/ml
ATI in supernatant (HIV-1 virus; Bardac 0.01%, J17): 190 cpm/ml
ATI in supernatant (HIV-1 virus; Bardac 0.01%, J20): 390 cpm/ml
ATI in supernatant (HIV-1 virus; Bardac 0.01%, J23): 1328 cpm/ml
ATI in supernatant (HIV-1 virus; Bardac 0.01%, J27): 780 cpm/ml
ATI in supernatant (HIV-1 virus; Bardac 0.01%, J30): 1000 cpm/ml
concentration of active substance inhibiting growth (S. aureus ATCC 6538): 0.0001%
dilution of the 0.1% solution inhibiting growth (S. aureus ATCC 6538): 0.1%
growth (S. aureus ATCC 6538; [1]): +
growth (S. aureus ATCC 6538; [2]): +
growth (S. aureus ATCC 6538; [3]): +
growth (S. aureus ATCC 6538; [4]): +
growth (S. aureus ATCC 6538; 0.0125% vol/vol, inactivator A): +
growth (S. aureus ATCC 6538; 0.0125% vol/vol, inactivator B): +
growth (S. aureus ATCC 6538; 0.0125% vol/vol, inactivator C): +
growth (S. aureus ATCC 6538; [5]): +
growth (S. aureus ATCC 6538; 0.025% vol/vol, inactivator A): +
growth (S. aureus ATCC 6538; 0.025% vol/vol, inactivator B): +
growth (S. aureus ATCC 6538; 0.025% vol/vol, inactivator C): +
growth (S. aureus ATCC 6538; 0.025% vol/vol, no inactivator): +
growth (S. aureus ATCC 6538; 0.05% vol/vol, inactivator A): +
growth (S. aureus ATCC 6538; 0.05% vol/vol, inactivator B): +
growth (S. aureus ATCC 6538; 0.05% vol/vol, inactivator C): +
growth (S. aureus ATCC 6538; 0.05% vol/vol, no inactivator): +
growth (S. aureus ATCC 6538; 0.1% vol/vol, inactivator A): +
growth (S. aureus ATCC 6538; 0.1% vol/vol, inactivator B): +
growth (S. aureus ATCC 6538; 0.1% vol/vol, inactivator C): +
growth (S. aureus ATCC 6538; 0.1% vol/vol, no inactivator): −
growth (S. aureus ATCC 6538; 0.5% vol/vol, inactivator A): +
growth (S. aureus ATCC 6538; 0.5% vol/vol, inactivator B): +
growth (S. aureus ATCC 6538; 0.5% vol/vol, inactivator C): +
growth (S. aureus ATCC 6538; 0.5% vol/vol, no inactivator): −
growth (S. aureus ATCC 6538; 1.0% vol/vol, inactivator A): +
growth (S. aureus ATCC 6538; 1.0% vol/vol, inactivator B): +
growth (S. aureus ATCC 6538; 1.0% vol/vol, inactivator C): +
growth (S. aureus ATCC 6538; 1.0% vol/vol, no inactivator): −

[H]/N=C(\N/C(=N/[H])NCCCCCCNC(=N)NC(=N)Nc1ccc(Cl)cc1)Nc1ccc(Cl)cc1 [Chlorhexidine, chlorohexidine digluconate, reference compound]
ATI in supernatant (HIV-1 virus; Chlorhexidine 0.005%, J3): 360 cpm/ml
ATI in supernatant (HIV-1 virus; Chlorhexidine 0.005%, J10): 580 cpm/ml
ATI in supernatant (HIV-1 virus; Chlorhexidine 0.005%, J30): 720 cpm/ml
ATI in supernatant (HIV-1 virus; Chlorhexidine 0.01%, J10): 200 cpm/ml
ATI in supernatant (HIV-1 virus; Chlorhexidine 0.01%, J13): 250 cpm/ml
ATI in supernatant (HIV-1 virus; Chlorhexidine 0.01%, J17): 230 cpm/ml
ATI in supernatant (HIV-1 virus; Chlorhexidine 0.01%, J27): 420 cpm/ml
concentration of active substance inhibiting growth (S. aureus ATCC 6538): 0.0005%
dilution of the 0.1% solution inhibiting growth (S. aureus ATCC 6538): 0.5%
growth (S. aureus ATCC 6538; [1]): +
growth (S. aureus ATCC 6538; [2]): +
growth (S. aureus ATCC 6538; [3]): +
growth (S. aureus ATCC 6538; [4]): +
growth (S. aureus ATCC 6538; 0.0125% vol/vol, inactivator A): +
growth (S. aureus ATCC 6538; 0.0125% vol/vol, inactivator B): +
growth (S. aureus ATCC 6538; 0.0125% vol/vol, inactivator C): +
growth (S. aureus ATCC 6538; [5]): +
growth (S. aureus ATCC 6538; 0.025% vol/vol, inactivator A): +
growth (S. aureus ATCC 6538; 0.025% vol/vol, inactivator B): +
growth (S. aureus ATCC 6538; 0.025% vol/vol, inactivator C): +
growth (S. aureus ATCC 6538; 0.025% vol/vol, no inactivator): +
growth (S. aureus ATCC 6538; 0.05% vol/vol, inactivator A): +
growth (S. aureus ATCC 6538; 0.05% vol/vol, inactivator B): +
growth (S. aureus ATCC 6538; 0.05% vol/vol, inactivator C): +
growth (S. aureus ATCC 6538; 0.05% vol/vol, no inactivator): +
growth (S. aureus ATCC 6538; 0.1% vol/vol, inactivator A): +
growth (S. aureus ATCC 6538; 0.1% vol/vol, inactivator B): +
growth (S. aureus ATCC 6538; 0.1% vol/vol, inactivator C): +
growth (S. aureus ATCC 6538; 0.1% vol/vol, no inactivator): +
growth (S. aureus ATCC 6538; 0.5% vol/vol, inactivator A): +
growth (S. aureus ATCC 6538; 0.5% vol/vol, inactivator B): +
growth (S. aureus ATCC 6538; 0.5% vol/vol, inactivator C): +
growth (S. aureus ATCC 6538; 0.5% vol/vol, no inactivator): −
growth (S. aureus ATCC 6538; 1.0% vol/vol, inactivator A): +
growth (S. aureus ATCC 6538; 1.0% vol/vol, inactivator B): +
growth (S. aureus ATCC 6538; 1.0% vol/vol, inactivator C): +
growth (S. aureus ATCC 6538; 1.0% vol/vol, no inactivator): −
